# Columns and labels:
# [1] = test system: isolated rat aorta rings; experiment: Endothelin-induced contractions in isolated rat aorta rings; parameters: species or system rat (Wistar-Kyoto); settings: in the absence of test compounds; endothelium removed; 37° C.; read-out: EC50 of endothelin (concentration required for a half-maximum contraction)
# Protocol: II. Inhibition of endothelin-induced contractions in isolated rat aorta rings
# Rings with a length of 5 mm were cut out from the thorax aorta of adult Wistar-Kyoto rats. The endothelium was removed by lightly rubbing the internal surface. Each ring was immersed at 37° C. in 10 ml of Krebs-Henseleit solution in an isolated bath while gassing with 95% O2 and 5% CO2. The isometric stretching of the rings was measured. The rings were stretched to a pre-tension of 3 g. After incubation for 10 minutes with the test compound or vehicle cumulative dosages of endothelin-1 were added. The activity of the test compound was determined by calculating the dosage ratios, i.e. the shift to the right (shift to higher values) of the EC50 of endothelin induced by 100 μM of test compound, with EC50 denoting the endothelin concentration required for a half-maximum contraction. […] The EC50 of endothelin in the absence of test compounds is 0.3 nM.
# [2] = biological target: endothelin receptors (human placenta membranes); experiment: Inhibition of endothelin binding to human placenta membranes (125I-endothelin); settings: 125I-endothelin 20 pM, 20° C. for 2 hours or 4° C. for 24 hours, read-out: IC50 (concentration required to inhibit 50% of the specific binding of 125I-endothelin)
# Protocol: I. Inhibition of endothelin binding to human placenta membranes (see. Life Sci 44:1429 (1989))
# Human placenta is homogenized in 5 mM Tris buffer, pH 7.4, which contains 1 mM MgCl2 and 250 mM sucrose. The homogenizate is centrifuged at 4° C. and 3000 g for 15 minutes, the supernatant containing the plasma membrane fraction is centrifuged with 72000 g for 30 minutes and the precipitate is washed with 75 mM Tris buffer, pH 7.4, which contains 25 mM MgCl2. Thereafter, precipitate obtained from in each case 10 g of original tissue is suspended in 1 ml of 75 mM Tris buffer, pH 7.4, containing 25 mM MgCl2 and 250 mM sucrose, and freeze-dried at --20° C. in 1 ml aliquots.
# For the binding assay, the freeze-dried membrane preparations are thawed and, after centrifugation at 20° C. and 25000 g for 10 minutes, re-suspended in assay buffer (50 mM Tris buffer, pH 7.4, containing 25 mM MnCl2, 1 mM EDTA and 0.5% of bovine serum albumin). 100 μl of this membrane suspension containing 70 μg of protein are incubated with 50 μl of ^125 I-endothelin (specific activity 2200 Ci/mMol) in assay buffer (25000 cpm, final concentration 20 pM) and 100 μl of assay buffer containing varying concentrations of test compound. The incubation is carried out at 20° C. for 2 hours or at 4° C. for 24 hours. The separation of free and membrane-bound radioligands is carried out by filtration over a glass fiber filter.
# The inhibitory activity of compounds of formula I determined in test procedure I is given in Table 1 as the IC50, that as the concentration […] which is required to inhibit 50% of the specific binding of ^1251 -endothelin.
Molecule,IC50 [2] [nM],EC50 [1] [nM]
"endothelin: endothelin-1, agonist added in cumulative dosages to contract rat aorta rings",–,0.3
"COc1ccc(Cl)c(Oc2c(CO)nc(N3CCOCC3)nc2NS(=O)(=O)c2ccc(C(C)(C)C)cc2)c1 [Example 3, 4-tert-butyl-N-[5-(2-chloro-5-methoxy-phenoxy)-6-hydroxymethyl-2-(morpholin-4-yl)-pyrimidin-4-yl]-benzenesulphonamide]",130,–
"COc1ccc(Cl)c(Oc2c(COCCO)ncnc2NS(=O)(=O)c2ccc(C(C)(C)C)cc2)c1 [Example 10, 4-tert-Butyl-N-[5-(2-chloro-5-methoxy-phenoxy)-6-(2-hydroxy-ethoxy-methyl)-pyrimidin-4-yl]-benzenesulphonamide]",184,–

# Now from value to molecule, other results behind:
IC50 [2] [nM],Molecule,EC50 [1] [nM]
35,"COc1ccc(Cl)c(Oc2c(COCCO)nc(N3CCOCC3)nc2NS(=O)(=O)c2ccc(C(C)(C)C)cc2)c1 [Example 5, 4-tert-butyl-N-[5-(2-chloro-5methoxy-phenoxy)-6-(2-hydroxy-ethoxymethyl)-2-(morpholin-4-yl)-pyrimidin-4-yl]-benzenesulphonamide]",–
182,"COc1ccc(Cl)c(Oc2c(COCC(O)CO)nc(N3CCOCC3)nc2NS(=O)(=O)c2ccc(C(C)(C)C)cc2)c1 (racemic) [Example 13, (R,S)-4-tert-butyl-N-[5-(2-chloro-5-methoxy-phenoxy)-6-(2,3-dihydroxy-propoxymethyl)-2-(morpholin-4-yl)-pyrimidin-4yl]-benzenesulphonamide]",–

# From patent US5420129A, “Phenylsulfonylamide pyrimidine” (Hoffmann-La Roche Inc., priority 1992, dated 1995)
